Patent US11453671B2, “Pyrazolopyrimidine inhibitors of JAK kinases and uses thereof” (Genentech, Inc., priority 2020, dated 2022)

Key:
[1] = Mouse lung tissue binding (equilibrium dialysis, RED); format: in vitro ADME; conditions: for Lung tissue binding, %: Table 5, sulfone-sulfide analog pairs; for Mouse LTB %: mouse lung tissue binding, % bound (Table 3)
Method: Mouse lung tissue binding. A high bound fraction or percentage of JAK1/JAK2 inhibitors to lung tissue may be undesirable since it can reduce the amount of free drug available to inhibit JAK1 or JAK2.
(a) Tissue binding experiments were performed in triplicate (n=3) using a Single-Use RED Plate by following the standard protocol. Initially, individual drugs were spiked to tissue homogenates (pH 7.4) to achieve a final concentration of 1 μM, and then 300 μL of drug-tissue homogenate mixtures were transferred to the donor wells of the RED plate which was pre-loaded with 500 μL phosphate buffer saline (133 mM) on the receiver wells. The RED plate was sealed with a gas permeable membrane and placed in a shaking incubator (450 rpm, VWR Symphony™) for 6 hr at 37° C. with 5% CO2. At the end of incubation, aliquots of 30 μL samples were taken out of the RED device and matrix equalized with an equal volume of tissue homogenates or buffer, and resulting samples were then immediately quenched with ice cold acetonitrile (sample:acetonitrile 1:4) containing either propranolol or labetalol as an internal standard. After shaking for 15 min at 500 rpm on a Thermo Scientific Compact Digital MicroPlate Shaker, all samples were then subjected to centrifugation at 3700 rpm for 15 min (Beckman Coulter Allegra X 12R) to remove plasma protein. Subsequently, supernatants were collected and then diluted with an equal volume of water prior to LC-MS/MS analysis.
(b) In an alternate procedure, the extent of lung tissue binding of test compound to mouse lung homogenate may also be determined by equilibrium dialysis using Pierce RED (rapid equilibrium dialysis) devices (Fisher Scientific 89811 & 89809). A 10 mM solution of compound in DMSO was prepared and diluted to 1 mM with DMSO. An aliquot of this 1 mM (4 μL) was added into lung homogenate (dilution factor of 1:9, lung tissue:potassium phosphate buffer (0.05 M, pH 7.4)) to give a final compound incubation concentration of 5 μM with solvent accounting for 0.5% (v/v) of the final incubation volume.
For each assay, the percentage lung tissue bound was determined in triplicate. Lung homogenate (200 μL) was loaded into one side of a RED device insert, in triplicate, and 350 μL of potassium phosphate buffer was loaded into the other side. The RED devices were sealed and incubated for 4 hours at ca. 37° C. on an orbital shaker (˜150 rpm).
Following incubation, an aliquot of lung homogenate (8 μL) and an aliquot of dialysate (72 μL) were matrix matched (lung homogenate with 72 μL phosphate buffer, dialysate with 8 μL lung homogenate) ahead of analysis. Protein was precipitated from the samples with the addition of 160 μL of acetonitrile containing internal standard. The same matrix matching and protein precipitation procedure was performed on lung homogenate aliquots sampled at the start of the experiment (t=0 min samples), for the assessment of the mass balance. The quenched samples were centrifuged (4000 rpm, 30 min, 4° C.) and the resultant supernatant diluted with water (3:1 (v/v), supernatant: water) and the samples analysed for parent compound by liquid chromatography mass spectrometry assay.
The unbound fraction (fu) in lung homogenate was determined from the ratio of the dialysate to homogenate peak area, corrected to take into account the lung homogenate dilution (D) to enable an estimate of whole lung tissue binding using the following equations: Undiluted fu=(1/D)/[((1/Apparent fu)−1)+(1/D)] Corrected fraction bound (%)=(1-undiluted fu)*100

[2] = Cell cytotoxicity assay HEK-293T (CellTiter-Glo, 72 hours); format: cell-based; conditions: human, HEK-293T cells, read-out: Cytotox K-293 EC50
In short: (§1)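 HEK-293T or Jurkat E6-1 cells plated at 450 cells/well were treated the next day with a 10-point titration from 50 μM top (0.5% DMSO final). After 72 h at 37° C, viability was read by CellTiter-Glo luminescence.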

[3] = Cell cytotoxicity assay Jurkat (CellTiter-Glo, 72 hours); format: cell-based; conditions: human, Jurkat clone E6-1 cells, read-out: Cytotox Jurkat EC50
In short: as §1

[4] = Cell cytotoxicity assay A549 (CellTiter-Glo, 72 hours); format: cell-based; conditions: human, A549 cells, read-out: Cytotox A549 EC50
In short: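 A549 cells were plated overnight, then exposed for 72 h at 37 °C to a 10-point compound titration (top 50 μM, 0.5% DMSO final). Viability was read as CellTiter-Glo luminescence after 20 min at room temperature.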

[5] = target: Recombinant human JAK2 kinase domain protein (Residues 812-1132) (Homo sapiens, UniProt O60674); experiment: JAK2 biochemical assay (microfluidic mobility shift, peptide phosphorylation); conditions: Enzyme JAK2 Ki (nM), 25 μM ATP, 0.2 nM total JAK2
Chain of Recombinant human JAK2 kinase domain protein (Residues 812-1132) (O60674 812-1132): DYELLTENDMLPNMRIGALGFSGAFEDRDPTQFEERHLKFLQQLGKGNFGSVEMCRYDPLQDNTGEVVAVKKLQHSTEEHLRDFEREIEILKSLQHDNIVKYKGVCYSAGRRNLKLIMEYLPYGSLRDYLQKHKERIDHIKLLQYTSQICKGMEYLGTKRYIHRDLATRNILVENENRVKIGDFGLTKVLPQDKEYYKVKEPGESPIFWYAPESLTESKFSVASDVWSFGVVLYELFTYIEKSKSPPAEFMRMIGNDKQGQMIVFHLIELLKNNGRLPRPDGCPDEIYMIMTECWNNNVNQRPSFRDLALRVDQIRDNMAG

[6] = Table 3, 72 hours, top concentration of 50 μM
[7] = Table 4, methyl-desmethyl analog pairs

Lung tissue binding, % [1] [%]	Mouse LTB % [1] [%]	Ki [5] [nM]	SMILES	EC50 at 72 h [2, 6] [µM]	EC50 at 72 h [3, 6] [µM]	EC50 at 72 h [4, 6] [µM]	EC50 at 72 h [2, 7] [µM]	EC50 at 72 h [3, 7] [µM]	EC50 at 72 h [4, 7] [µM]
85.8	85	0.19	Cn1cc(NC(=O)c2cnn3cccnc23)c(-c2cc(S(=O)(=O)C3COC3)ccc2OC(F)F)n1 [Example 13, N-[3-[2-(difluoromethoxy)-5-(oxetan-3-ylsulfonyl)phenyl]-1-methyl-pyrazol-4-yl]pyrazolo[1,5-a]pyrimidine-3-carboxamide]	31	≥ 50	44	–	–	–
–	87.3	0.19	Cn1cc(NC(=O)c2cnn3cccnc23)c(-c2cc(S(=O)(=O)c3ccncc3)ccc2OC(F)F)n1 [Example 16, N-[3-[2-(difluoromethoxy)-5-(4-pyridylsulfonyl)phenyl]-1-methyl-pyrazol-4-yl]pyrazolo[1,5-a]pyrimidine-3-carboxamide]	7.6	6.2	7.4	–	–	–
–	85.8	0.1	Cn1cc(NC(=O)c2cnn3cccnc23)c(-c2cc(S(C)(=O)=O)ccc2OC(F)F)n1 [Example 17, N-[3-[2-(difluoromethoxy)-5-methylsulfonyl-phenyl]-1-methyl-pyrazol-4-yl]pyrazolo[1,5-a]pyrimidine-3-carboxamide]	7.3	11	8.7	7.3	11	8.7
–	83	0.16	Cn1cc(NC(=O)c2cnn3cccnc23)c(-c2cc(S(=O)(=O)N3CCC3)ccc2OC(F)F)n1 [Example 21, N-[3-[5-(azetidin-1-ylsulfonyl)-2-(difluoromethoxy)phenyl]-1-methyl-pyrazol-4-yl]pyrazolo[1,5-a]pyrimidine-3-carboxamide]	4.8	11	7.5	–	–	–
–	88.7	0.19	Cn1cc(NC(=O)c2cnn3cccnc23)c(-c2cc(S(=O)(=O)C3CC3)ccc2OC(F)F)n1 [Example 22, N-[3-[5-cyclopropylsulfonyl-2-(difluoromethoxy)phenyl]-1-methyl-pyrazol-4-yl]pyrazolo[1,5-a]pyrimidine-3-carboxamide]	43	≥ 50	≥ 50	–	–	–
–	86.9	0.097	CNS(=O)(=O)c1ccc(OC(F)F)c(-c2nn(C)cc2NC(=O)c2cnn3cccnc23)c1 [Example 26, N-[3-[2-(difluoromethoxy)-5-(methylsulfamoyl)phenyl]-1-methyl-pyrazol-4-yl]pyrazolo[1,5-a]pyrimidine-3-carboxamide]	5.8	12	11	–	–	–
70.8	70.8	0.14	CS(=O)(=O)c1ccc(OC(F)F)c(-c2nn(CC#N)cc2NC(=O)c2cnn3cccnc23)c1 [Example 28, N-[1-(cyanomethyl)-3-[2-(difluoromethoxy)-5-methylsulfonyl-phenyl]pyrazol-4-yl]pyrazolo[1,5-a]pyrimidine-3-carboxamide]	24	39	≥ 50	–	–	–
–	83.1	0.14	CN(C)S(=O)(=O)c1ccc(OC(F)F)c(-c2nn(C)cc2NC(=O)c2cnn3cccnc23)c1 [Example 30, N-[3-[2-(difluoromethoxy)-5-(dimethylsulfamoyl)phenyl]-1-methyl-pyrazol-4-yl]pyrazolo[1,5-a]pyrimidine-3-carboxamide]	2.4	9.2	6.1	–	–	–
86.2	86.2	0.19	Cn1cc(S(=O)(=O)c2ccc(OC(F)F)c(-c3nn(C)cc3NC(=O)c3cnn4cccnc34)c2)cn1 [Example 35, N-[3-[2-(difluoromethoxy)-5-(1-methylpyrazol-4-yl)sulfonyl-phenyl]-1-methyl-pyrazol-4-yl]pyrazolo[1,5-a]pyrimidine-3-carboxamide]	17	21	22	–	–	–
–	95.6	0.11	Cn1cc(NC(=O)c2cnn3cccnc23)c(-c2cc(S(=O)(=O)c3ccccc3)ccc2OC(F)F)n1 [Example 40, N-[3-[5-(benzenesulfonyl)-2-(difluoromethoxy)phenyl]-1-methyl-pyrazol-4-yl]pyrazolo[1,5-a]pyrimidine-3-carboxamide]	≥ 50	≥ 50	≥ 50	–	–	–
–	91.2	0.1	Cn1cc(NC(=O)c2cnn3cccnc23)c(-c2cc(S(=O)(=O)c3cn[nH]c3)ccc2OC(F)F)n1 [Example 41, N-[3-[2-(difluoromethoxy)-5-(1H-pyrazol-4-ylsulfonyl)phenyl]-1-methyl-pyrazol-4-yl]pyrazolo[1,5-a]pyrimidine-3-carboxamide]	28	35	≥ 50	–	–	–
–	86.5	0.34	Cn1cc(NC(=O)c2cnn3cccnc23)c(-c2cc(S(=O)(=O)c3ccn(C)c(=O)c3)ccc2OC(F)F)n1 [Example 44, N-[3-[2-(difluoromethoxy)-5-[(1-methyl-2-oxo-4-pyridyl)sulfonyl]phenyl]-1-methyl-pyrazol-4-yl]pyrazolo[1,5-a]pyrimidine-3-carboxamide]	7	11	24	–	–	–
–	87.9	0.35	N#CCn1cc(NC(=O)c2cnn3cccnc23)c(-c2cc(S(=O)(=O)C3CC3)ccc2OC(F)F)n1 [Example 45, N-[1-(cyanomethyl)-3-[5-cyclopropylsulfonyl-2-(difluoromethoxy)phenyl]pyrazol-4-yl]pyrazolo[1,5-a]pyrimidine-3-carboxamide]	≥ 50	≥ 50	≥ 50	–	–	–
–	89.9	0.087	Cn1cc(NC(=O)c2cnn3cccnc23)c(-c2cc3c(cc2OC(F)F)NCCS3(=O)=O)n1 [Example 46, N-[3-[6-(difluoromethoxy)-1,1-dioxo-3,4-dihydro-2H-1lambda6,4-benzothiazin-7-yl]-1-methyl-pyrazol-4-yl]pyrazolo[1,5-a]pyrimidine-3-carboxamide]	≥ 50	≥ 50	≥ 50	–	–	–
–	84.4	0.37	CN(C)CCn1cc(S(=O)(=O)c2ccc(OC(F)F)c(-c3nn(C)cc3NC(=O)c3cnn4cccnc34)c2)cn1 [Example 49, N-[3-[2-(difluoromethoxy)-5-[1-[2-(dimethylamino)ethyl]pyrazol-4-yl]sulfonyl-phenyl]-1-methyl-pyrazol-4-yl]pyrazolo[1,5-a]pyrimidine-3-carboxamide]	14	24	33	–	–	–
